Data: US20080287490A1, “Bis-pyridino containing compounds for the use in the treatment of CNS pathologies” (UNIVERSITY OF KENTUCKY RESEARCH FOUNDATION, priority 2005, published 2008)
Read-outs that look alike come from different tables or passages of the source.

Legend:
[1] = molecular target: T1, α7-type neuronal nicotinic acetylcholine receptors (Rattus norvegicus, UniProt Q05941); assay type: binding; conditions: read-out: Ki, [^3H]MLA binding
T1 construct: Rat brain was dissected into the whole brain tissue without cortex, striatum and cerebellum; from tissue; host or cells: rat brain (without cortex, striatum, cerebellum) membranes
T1 sequence (Q05941 23-502): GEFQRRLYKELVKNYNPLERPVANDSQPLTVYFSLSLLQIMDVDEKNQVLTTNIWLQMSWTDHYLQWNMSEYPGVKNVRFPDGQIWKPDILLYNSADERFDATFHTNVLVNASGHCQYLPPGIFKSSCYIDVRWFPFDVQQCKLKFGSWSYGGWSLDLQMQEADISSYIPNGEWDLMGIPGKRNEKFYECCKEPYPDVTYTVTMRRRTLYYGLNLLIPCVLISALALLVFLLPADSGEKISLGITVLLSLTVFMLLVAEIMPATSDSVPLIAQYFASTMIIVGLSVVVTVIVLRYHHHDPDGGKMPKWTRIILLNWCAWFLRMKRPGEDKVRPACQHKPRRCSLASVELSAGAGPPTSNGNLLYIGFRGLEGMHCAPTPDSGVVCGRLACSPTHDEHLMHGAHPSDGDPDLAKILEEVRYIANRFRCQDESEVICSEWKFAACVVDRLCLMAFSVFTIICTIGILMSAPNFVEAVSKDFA
Description: Rat brain was dissected into the whole brain tissue without cortex, striatum and cerebellum and was frozen in liquid nitrogen and stored at −70° C. until use.
The brain tissue was homogenized with a Tekmar Polytron (setting 40) in 20 volumes of ice-cold hypotonic buffer (2 mM HEPES, 14.4 mM NaCl, 0.15 mM KCl, 0.2 mM CaCl2 and 0.1 mM MgSO4, pH=7.5). The homogenate was incubated at 37° C. for ten minutes and centrifuged at 25,000×g for 15 minutes at […] The pellet was washed three times more by resuspension in the 20 volumes of the same buffer and centrifugation at the above parameters. The final pellet was stored at −20° C. under 4.6 ml of the incubation buffer and was suspended just before the incubation with radioligand.
[^3H]MLA (25.4 Ci/mmol) was purchased from Tocris Cookson Ltd., Bristol, U.K. Binding was performed in duplicate, in a final volume of 250 μl of the incubation medium, containing 20 mM HEPES, 144 mM NaCl, 1.5 mM KCl, 2 mM CaCl2, 1 mM MgSO4 and 0.05% BSA, pH=7.5. Reaction was initiated by the addition of 100 μl of membrane suspension to the samples containing a desired concentration of test compounds and […] [^3H] MLA (final concentration) and incubated for 2 hours at room temperature. […] The binding reaction was terminated by dilution of samples with 3 ml of ice-cold incubation buffer followed by immediate filtration through presoaked in 0.5% polyethylenimine glass fiber filters (S&S, grade #32) using a Brandel harvester system. Filters were rinsed three times with 3 ml of ice-cold buffer, transferred to scintillation-vials and 4 ml of scintillation cocktail was added. Protein was measured using the Bradford dye-binding procedure with bovine serum albumin as the standard.

[2] = test system: nAChR subtypes mediating nicotine-evoked [^3H]-dopamine overflow
Description: [^3H]-Dopamine overflow from superfused striatal slices. […] Striatal coronal slices (500 μm, 4-6 mg) were obtained and incubated for 30 minutes in Krebs' buffer (in mM: 118 NaCl, 4.7 KCl, 1.2 MgCl2, 1 NaH2PO4, 1.3 CaCl2, 11.1 glucose, 25 NaHCO3, 0.11 L-ascorbic acid and 0.004 disodium EDTA, pH 7.4, saturated with 95% O2/5% CO2) in a metabolic shaker at 34° C. Slices were incubated with 0.1 μM (final concentration) of [^3H]-dopamine during the latter 30 minutes of the 60-minute incubation period. Each slice was transferred to a glass superfusion chamber maintained at 34° C. and superfused (1 ml/min) with Krebs' buffer containing nomifensine (10 μM) and pargyline (10 μM) to inhibit [^3H]-dopamine reuptake after release into the extracellular space, ensuring that [^3H]-overflow primarily represented [^3H]-dopamine. Sample collection (5-minute; 5 mL) began after 60 minutes of superfusion. […] At the end of the experiment, each slice was solubilized, and the [^3H]-content of the tissue determined. Release during each minute was normalized for total tissue [^3H]-content. Analog-induced intrinsic activity and inhibitory activity were determined using slices from the same rat (repeated-measures design).
The amount of [^3H] in each sample was calculated by dividing the total [^3H] collected in each sample by the total in the tissue at the time of sample collection (defined as fractional release). […] Data were analyzed by weighted, least squares regression analysis of the sigmoidal concentration-effect curves to obtain EC50 and IC50 values.
Striatal slices (500 μm, 4-6 mg) were incubated for 30 minutes in Krebs' buffer (in mM: 118 NaCl, 4.7 KCl, 1.2 MgCl2, 1 NaH2PO4, 1.3 CaCl2, 11.1 glucose, 25 NaHCO3, 0.11 L-ascorbic acid and 0.004 disodium EDTA, pH 7.4, saturated with 95% O2/5% CO2) in a metabolic shaker at 34° C. Slices were incubated with 0.1 μM (final concentration) [^3H]DA during the latter 30 minutes of the 60-minute incubation period. Each slice was transferred to a glass superfusion chamber maintained at 34° C. and superfused (1 ml/min) with Krebs' buffer containing nomifensine (10 μM) and pargyline (10 μM) to inhibit [^3H]DA reuptake and metabolism, respectively, after release into the extracellular space, ensuring that [^3H]overflow primarily represents [^3H]DA. Sample collection (5-minute; 5 ml) began after 60 minutes of superfusion. […] Thus, the ability of these analogs to elicit intrinsic activity (evoke [^3H]DA overflow) was determined. At the end of the experiment, each slice was solubilized and [^3H]content of the tissue determined. Release during each minute was normalized for total [^3H]content of the slice. Analog-induced intrinsic activity and inhibitory activity were determined using slices from the same rat (repeated-measures design).
Fractional release was calculated by dividing the total tritium collected in each sample by the total tritium in the tissue at the time of sample collection. […] Typically, data were analyzed by weighted, least squares regression analysis of sigmoidal concentration-effect curves to obtain EC50 and IC50 values.

[3] = molecular target: nAChR mediating nicotine-evoked [^3H]DA release (α3β2* receptor subtype); assay type: cell-based, rat; conditions: read-out: IC50, S-(−)-nicotine-evoked [^3H]DA release
Description: Slices were rinsed with 15 mL of fresh buffer and incubated for an additional 30 minutes in fresh buffer containing 0.1 μM [^3H]DA (6 slices/3 ml). Subsequently, slices were rinsed with 15 ml of fresh buffer and transferred to a glass superfusion chamber.
Radioactivity in the superfusate and tissue samples was determined by liquid scintillation spectroscopy. […] Basal [^3H]outflow was calculated from the average of the tritium collected in the two five minute samples just before addition of the bis-alkyl pyridino analog. […] [^3H]Overflow was calculated by subtracting the [^3H]outflow during an equivalent period of prestimulation from the values in samples collected during and after drug exposure. Inasmuch as the radiolabelled compounds were not separated and identified, the tritium collected in superfusate is referred to as either [^3H]outflow or [^3H]overflow, rather than as [^3H]DA.

[4] = molecular target: T2, Rat Striatal Nicotinic Acetylcholine Receptors ([^3H]nicotine binding sites) (Rattus norvegicus, UniProt P09483+P12390); assay: biochemical; conditions: read-out: Ki, specific binding of [^3H]-nicotine
T2 construct: Striata from two rats were dissected, pooled, and homogenized; from tissue; host or cells: rat striatum membranes
T2 sequence (P09483 31-630): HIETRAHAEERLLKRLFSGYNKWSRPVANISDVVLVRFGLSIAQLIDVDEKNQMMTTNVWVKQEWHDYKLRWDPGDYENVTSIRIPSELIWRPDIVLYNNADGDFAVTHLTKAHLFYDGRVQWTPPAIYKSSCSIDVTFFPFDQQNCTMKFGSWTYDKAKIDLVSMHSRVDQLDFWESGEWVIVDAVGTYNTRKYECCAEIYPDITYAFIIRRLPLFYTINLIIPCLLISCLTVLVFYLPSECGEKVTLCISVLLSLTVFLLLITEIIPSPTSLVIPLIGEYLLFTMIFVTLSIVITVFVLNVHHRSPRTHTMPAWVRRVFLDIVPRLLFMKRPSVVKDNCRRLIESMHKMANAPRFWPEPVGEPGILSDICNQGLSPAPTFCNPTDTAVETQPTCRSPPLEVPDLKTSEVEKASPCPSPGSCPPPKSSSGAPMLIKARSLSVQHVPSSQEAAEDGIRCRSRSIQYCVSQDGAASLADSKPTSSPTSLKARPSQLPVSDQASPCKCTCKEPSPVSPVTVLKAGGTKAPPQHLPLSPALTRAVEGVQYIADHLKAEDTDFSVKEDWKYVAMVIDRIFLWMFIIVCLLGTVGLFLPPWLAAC
T2 sequence (P12390 25-500): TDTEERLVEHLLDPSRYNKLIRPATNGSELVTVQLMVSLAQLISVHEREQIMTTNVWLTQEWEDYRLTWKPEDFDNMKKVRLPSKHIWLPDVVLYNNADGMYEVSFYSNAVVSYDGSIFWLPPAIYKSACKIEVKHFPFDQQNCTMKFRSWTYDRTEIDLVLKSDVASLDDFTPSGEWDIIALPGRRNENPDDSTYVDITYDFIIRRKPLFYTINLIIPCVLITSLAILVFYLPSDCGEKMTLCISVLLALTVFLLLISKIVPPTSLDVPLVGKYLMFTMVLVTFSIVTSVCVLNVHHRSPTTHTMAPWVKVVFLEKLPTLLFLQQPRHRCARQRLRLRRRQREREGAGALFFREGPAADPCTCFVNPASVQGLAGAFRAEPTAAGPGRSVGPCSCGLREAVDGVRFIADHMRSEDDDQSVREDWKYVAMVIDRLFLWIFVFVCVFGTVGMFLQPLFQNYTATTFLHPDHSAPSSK
Description: Striata from two rats were dissected, pooled, and homogenized with a Tekmar polytron in 10 volumes of ice-cold modified Krebs-HEPES buffer (20 mM HEPES, 118 mM NaCl, 4.8 mM KCl, 2.5 mM CaCl2, 1.2 mM MgSO4, adjusted to pH 7.5). The homogenates were incubated at 37° C. for five minutes and centrifuged at 15,000 g for 20 minutes. The pellet was resuspended in ten volumes of ice-cold MilliQ water, incubated for five minutes at 37° C., and centrifuged at 15,000 g for 20 minutes The second pellet was then resuspended in ten volumes of fresh ice-cold 10% Krebs-HEPES buffer, incubated at 37° C., and centrifuged at 15,000 g for 20 minutes. The latter sequence of resuspension, incubation, and centrifugation was repeated. The pellet was frozen under fresh 10% Krebs-HEPES buffer and stored at −40° C. until assay. Upon assay, the pellet was resuspended in the Krebs-HEPES buffer, incubated at 37° C. for five minutes, and centrifuged at 15,000 g for 20 minutes. The final pellet was resuspended in 3.6 ml ice-cold MilliQ water which provided for approximately 200 μg protein per 100 μl aliquot. Competition assays were performed in duplicate in a final volume of 200 μl Krebs-HEPES buffer containing […] Tris buffer (pH 7.5 at 4° C.). […] After a 90 minute incubation at 4° C., reactions were terminated by dilution of the samples with 3 ml of ice-cold Krebs-HEPES buffer followed immediately by filtration through Whatman GF/B glass fiber filters (presoaked in 0.5% polyethyleneimine) using a Brandel Cell Harvester. Filters were rinsed three times with 3 ml of ice-cold Krebs-HEPES buffer, transferred to scintillation vials, and 5 ml scintillation cocktail (Research Products International Corp., Mt. Prospect, Ill.) added. […] Binding parameters were determined using the weighted, least squares non-linear regression.

α4β2* nAChRs = α4β2* nAChRs (Rattus norvegicus, UniProt P09483+P12390)
Sequence of α4β2* nAChRs (P09483 31-630): as the sequence (P09483 31-630) above
Sequence of α4β2* nAChRs (P12390 25-500): as the sequence (P12390 25-500) above
Description: Whole brain, excluding cortex and cerebellum, was homogenized in 20 ml of ice-cold buffer, containing (in mM): 2 HEPES, 11.8 NaCl, 0.48 KCl, 0.25 CaCl2 and 0.12 MgSO4, pH 7.5. Homogenate was centrifuged (25,000 g, 15 minutes, 4° C.). Pellets were resuspended in 20 ml of buffer and incubated at 37° C., for ten minutes, cooled to 4° C. and centrifuged (25,000 g, 15 minutes, 4° C.). Pellets were resuspended and centrifuged using the same conditions. Final pellets were stored in assay buffer, containing (in mM): 20 HEPES, 118 NaCl, 4.8 KCl, 2.5 CaCl2, and 1.2 MgSO4) pH 7.5 at −70° C. Upon use, final pellets were resuspended in ˜20 ml assay buffer. […] Control was in the absence of analog. […] Incubations proceeded for 60 minutes at room temperature using 96-well plates and were terminated by harvesting on Unifilter-96 GF/B filter plates presoaked in 0.5% polyethylenimine, using a Packard FilterMate harvester.
After washing five times with 350 μl ice-cold assay buffer, filter plates were dried (60 minutes, 49° C.), bottom-sealed, and filled with Packard's MicroScint 20 cocktail (40 μl/well). After 60 minutes, filter plates were top-sealed, and radioactivity determined using a Packard TopCount. Protein concentrations were determined using bovine serum albumin as the standard.
Whole brain was homogenized in 20 ml of ice-cold buffer (in mM: 2 HEPES, 11.8 NaCl, 0.48 KCl, 0.25 CaCl2, and 0.12 MgSO4, pH 7.5). Homogenates were centrifuged (25,000 g, 15 minutes, 4° C.). Pellets were resuspended in 20 ml of buffer and incubated at 37° C., for 10 minutes, cooled to 4° C. and centrifuged (25,000 g, 15 minutes, 4° C.). Pellets were resuspended and centrifuged again using the same conditions. Final pellets were stored at −70° C. in assay buffer (in mM: 20 HEPES, 118 NaCl, 4.8 KCl, 2.5 CaCl2, and 1.2 MgSO4, pH 7.5). Upon use, final pellets were resuspended in ˜20 ml assay buffer. […] Control was in the absence of analog. […] Incubation proceeded for 60 minutes at room temperature using 96-well plates and was terminated by harvesting on Unifilter-96 GF/B filter plates, presoaked in 0.5% polyethylenimine, using a Packard FiterMate harvester. After washing 5× with 350 μl ice-cold assay buffer, filter plates were dried (60 minutes, 49° C.), bottom-sealed, and filled with Packard's MicroScint 20 cocktail (40 μl/well). After 60 minutes, filter plates were top-sealed, and radioactivity determined. Protein concentration was determined using BSA as the standard.

[5] = molecular target: T1, α7-type neuronal nicotinic acetylcholine receptors; assay: biochemical; conditions: read-out: Ki, [^3H]MLA binding
[6] = read-out: Nicotine-evoked [^3H]DA Overflow IC50, Table 5, mean (95% confidence interval)
[7] = read-out: Nicotine-evoked [^3H]DA Overflow IC50
[8] = rat striatal slices, nicotine 10 μM
[9] = rat brain membranes, 2.5 nM [^3H]-MLA
[10] = rat striatal membranes, 3 nM [^3H]-nicotine
[11] = rat brain membranes, […] [^3H]-MLA
[12] = read-out: Nicotine-evoked [^3H]DA Overflow IC50, Table 6, mean (standard error)

α-Bungarotoxin [reference compound] was tested, and the Ki [1] was 0.0286 ± 0.0054 µM.

`CCCCCCCCCCCCCCCCCCCC[n+]1ccccc1` [NEcPB] showed an IC50 [2, 6] of 0.12 µM.

For “N,N′-Undecane-1,11-diyl-bis-picolinium Dibromide [bPiUB]”, the IC50 [3] was 1.61 µM, the Ki [1] was > 100 µM and the IC50 [2, 7] was 1.61 µM.

With `CO[C@H]1CC=C2CCN3CCC4=C(CC(=O)OC4)[C@]23C1` [DHβE, dihydro-β-erthyroidine, reference compound] the Ki [4] was 0.15 µM and the IC50 [3] was 1 µM.

For `CCCCCCCCCCCC[n+]1cccc(C2CCCN2C)c1` (centres unmarked) [NDDNI], the Ki (α4β2* nAChRs) was 0.14 µM, the “potency relative to DHβE as inhibitor of nAChRs mediating nicotine-evoked dopamine release” value [2] was “at least two orders of magnitude more potent” and the IC50 ([2]; read-out: IC50, inhibition of nicotine-evoked [^3H]dopamine release/overflow) was 0.009 µM.

In the case of `c1ccc2c[n+](CCCCCCCCCC[n+]3ccc4ccccc4c3)ccc2c1` [bIQDI, N,N′-Decane-1,10-diyl-bis-isoquinolinium Diiodide], the IC50 [3, 8] is reported as 2.62 µM and the Ki [5, 9] is reported as 5.5 µM.

“N,N′-Decane-1,10-diyl-bis-picolinium Diiodide [bPiDI]” was tested, and the Ki [4] was > 100 µM, the IC50 [3] was 0.03 µM and the Ki [1] was > 100 µM. For the same compound, the IC50 [2, 7] was 0.03 µM.

In the case of `c1ccc2c[n+](CCCCCCCCC[n+]3ccc4ccccc4c3)ccc2c1` [bIQNB, N,N′-Nonane-1,9-diyl-bis-isoquinolinium Dibromide], the Ki [4, 10] is reported as > 100 µM, the IC50 [3, 8] is reported as 1.61 µM and the Ki [5, 9] is reported as 13.1 µM.

Compound `CN1CCC[C@H]1c1ccc[n+](CCCCCCCC[n+]2cccc([C@@H]3CCCN3C)c2)c1` [bNOI, N,N′-Octane-1,8-diyl-bis-nicotinium Diiodide] has a Ki [4, 10] of 1.5 µM and an IC50 [3, 8] of 19.1 µM.

`c1ccc2c(c1)ccc[n+]2CCCCCCCCC[n+]1cccc2ccccc21` [bQNB, N,N′-Nonane-1,9-diyl-bis-quinolinium Dibromide] gave a Ki [4, 10] of 20.1 µM, an IC50 [3, 8] of 17.3 µM and a Ki [5, 9] of 3.4 µM.

In the case of `c1ccc2c[n+](CCCCCCCC[n+]3ccc4ccccc4c3)ccc2c1` [bIQOI, N,N′-Octane-1,8-diyl-bis-isoquinolinium Diiodide], the Ki [4, 10] is reported as > 100 µM, the IC50 [3, 8] is reported as 51.9 µM and the Ki [5, 9] is reported as 8.55 µM.

For `c1ccc2c(c1)ccc[n+]2CCCCCC[n+]1cccc2ccccc21` [bQHxI, N,N′-Hexane-1,6-diyl-bis-quinolinium Diiodide], the Ki [4, 10] was > 100 µM, the IC50 [3, 8] was > 100 µM and the Ki [1, 11] was 13.3 µM.

`CN1CCCC1c1ccc[n+](CCCCCCCCCC[n+]2cccc(C3CCCN3C)c2)c1` (centres unmarked) [bNDI, N,N′-Decane-1,10-diyl-bis-nicotinium Diiodide] was tested, and the Ki [4, 10] was 0.28 µM, the IC50 [3, 8] was > 100 µM and the Ki [5, 9] was > 100 µM.

`CCCCCCCCC[n+]1cccc2c1CCC1CCN(C)C21` (centres unmarked) [BCN] was tested, and the IC50 [2, 12] was 0.31 µM.

`c1ccc2c[n+](CCCCCCCCCCC[n+]3ccc4ccccc4c3)ccc2c1` [bIQUB, N,N′-Undecane-1,11-diyl-bis-isoquinolinium Dibromide] gave a Ki [4, 10] of 9.02 µM, an IC50 [3, 8] of 0.49 µM and a Ki [5, 9] of 24.1 µM.

`c1cc[n+](CCCCCCCCC[n+]2ccccc2)cc1` [bPNB, N,N′-Nonane-1,9-diyl-bis-pyridinium Dibromide] was tested, and the Ki [4, 10] was 24.1 µM and the IC50 [3, 8] was > 100 µM.

In the case of `c1ccc2c[n+](CCCCCC[n+]3ccc4ccccc4c3)ccc2c1` [bIQHxI, N,N′-Hexane-1,6-diyl-bis-isoquinolinium Diiodide], the Ki [4, 10] is reported as 17.9 µM, the IC50 [3, 8] is reported as > 100 µM and the Ki [1, 11] is reported as 16 µM.

Compound `c1ccc2c(c1)ccc[n+]2CCCCCCCCCC[n+]1cccc2ccccc21` [bQDI, N,N′-Decane-1,10-diyl-bis-quinolinium Diiodide] has an IC50 [3, 8] of 8.99 µM and a Ki [5, 9] of 7.32 µM.

With `c1cc[n+](CCCCCCCC[n+]2ccccc2)cc1` [bPOI, N,N′-Octane-1,8-diyl-bis-pyridinium Diiodide] the Ki [4, 10] was 33.9 µM and the IC50 [3, 8] was > 1 µM.

With `CN1CCC[C@H]1c1ccc[n+](CCCCCC[n+]2cccc([C@@H]3CCCN3C)c2)c1` [bNHxI, N,N′-Hexane-1,6-diyl-bis-nicotinium Diiodide] the IC50 [3, 8] was > 100 µM.

Compound `CCCCCCCCCCCCCCC[n+]1ccccc1` [NPDPB] has a Ki (α4β2* nAChRs; read-out: [^3H]Nicotine Binding Ki, Table 5, mean (95% confidence interval)) of 38 µM and an IC50 [2, 6] of 0.32 µM.

Work on `c1ccc2c(c1)ccc[n+]2CCCCCCCCCCC[n+]1cccc2ccccc21` [bQUB, N,N′-Undecane-1,11-diyl-bis-quinolinium Dibromide] yielded a Ki [4, 10] of 38.3 µM, an IC50 [3, 8] of 12 µM and a Ki [5, 9] of 2.44 µM.

`c1cc[n+](CCCCCCCCCC[n+]2ccccc2)cc1` [bPDI, N,N′-Decane-1,10-diyl-bis-pyridinium Diiodide] was tested, and the Ki [4, 10] was 18.6 µM and the IC50 [3, 8] was > 1 µM.

With `c1cc[n+](CCCCC[n+]2ccccc2)cc1` [bPPeI, N,N′-Pentane-1,5-diyl-bis-pyridinium Diiodide] the Ki [4, 10] was > 100 µM and the IC50 [3, 8] was > 100 µM.

For `CN1CCC[C@H]1c1ccc[n+](CCCCCCCCC[n+]2cccc([C@@H]3CCCN3C)c2)c1` [bNNB, N,N′-Nonane-1,9-diyl-bis-nicotinium Dibromide], the Ki [4, 10] was 4.31 µM and the IC50 [3, 8] was > 100 µM.

`CCCCCCCCCCCC[n+]1ccccc1` [NDDPI] gave an IC50 [2, 6] of 0.26 µM.

`CN1CCC[C@H]1c1ccc[n+](CCCCCCCCCCC[n+]2cccc([C@@H]3CCCN3C)c2)c1` [bNUB, N,N′-Undecane-1,11-diyl-bis-nicotinium Dibromide] was tested, and the Ki [4, 10] was 0.37 µM and the IC50 [3, 8] was > 100 µM.

With `CCCCCCCCCCCC[n+]1ccc2c(c1)[C@@H]1[C@H](CC2)CCN1C` [ACDD] the IC50 [2, 12] was 0.22 µM.

`CCCCCCCC[n+]1cccc(C)c1` [NOPiI] gave an IC50 ([2]; read-out: Nicotine-evoked [^3H]DA Overflow IC50, Table 9, mean (standard error)) of 1 µM.

With `c1cc[n+](CCCCCC[n+]2ccccc2)cc1` [bPHxI, N,N′-Hexane-1,6-diyl-bis-pyridinium Diiodide] the Ki [4, 10] was 97.8 µM and the IC50 [3, 8] was > 100 µM.

`c1ccc2c(c1)ccc[n+]2CCCCCCCC[n+]1cccc2ccccc21` [bQOI, N,N′-Octane-1,8-diyl-bis-quinolinium Diiodide] was tested, and the IC50 [3, 8] was 10.7 µM and the Ki [5, 9] was 2.01 µM.

In the case of `CCCCCCCCCCC[n+]1cccc2c1CCC1CCN(C)C21` (centres unmarked) [BCU], the IC50 [2, 12] is reported as 0.04 µM.

In the case of `c1cc[n+](CCCCCCCCCCC[n+]2ccccc2)cc1` [bPUB, N,N′-Undecane-1,11′-diyl-bis-pyridinium Dibromide], the Ki [4, 10] is reported as 14.4 µM, the IC50 [3, 8] is reported as > 100 µM and the Ki [5] is reported as 50.2 µM.
